Article PMC10034449, “FDA-approved Abl/EGFR/PDGFR kinase inhibitors show potent efficacy against pandemic and seasonal influenza A virus infections of human lung explants” (iScience, 2023)
“And” between values parts separate entries of the source, which are not always exact repeats. Equal values may be shown once.

Legend:
[1] = test system: A/Netherlands/602/09 (H1N1) replication complex (PB2, PB1, PA, NP); type: cell-based, influenza A virus
[2] = test system: NL09 or NL11; type: cell-based, influenza A virus
[3] = test system: NL09 or NL11; type: cell-based, influenza A virus; remark: listed apart in the source
[4] = test system: NL11 viral polymerase activity; type: cell-based, influenza A virus
[5] = test system: NL09 viral polymerase activity; type: cell-based, influenza A virus
[6] = test system: NFkBpS536 (NFkB p65); type: cell-based, human
[7] = test system: human precision-cut lung slices (hPCLS); assay: Ex vivo cytotoxicity in hPCLS (LDH-Glo, LDH release); conditions: 10xmax: DF 50 μM, BO 50 μM, SA 1.25 μM, up to 144 h
[8] = test system: PDGFRα vs PDGFRβ; parameters: method as in PMID 19922818; conditions: cited from earlier work
[9] = test system: A/NL/213/03 (H3N2) replication complex (PB2, PB1, PA, NP); type: cell-based, influenza A virus
[10] = test system: PAK3; conditions: 0.48 μM; cited from earlier work

| Compound | % Luminescence (relative to untreated / normalized to GFP) [1] | effect on viral entry / virion localization [2] | significance of titer reduction over the infection [3] | % Luminescence (relative to untreated / normalized to GFP) [4] | viral titer reduction [3] | further results |
| --- | --- | --- | --- | --- | --- | --- |
| CC#CC(=O)N1CCC[C@H]1c1nc(-c2ccc(C(=O)Nc3ccccn3)cc2)c2c(N)nccn12 [AC, Acalabrutinib] | 82% | No significant changes were detectable | only significant at 24 and 48 hpi | 67% |  |  |
| COc1cc(Nc2c(C#N)cnc3cc(OCCCN4CCN(C)CC4)c(OC)cc23)c(Cl)cc1Cl [BO, Bosutinib] |  | no virus was detected | significant throughout the infections |  |  | F-actin network [2]: not detectable |
| CNC(=O)c1ccc(Nc2ncc(C(F)(F)F)c(NCc3nccnc3N(C)S(C)(=O)=O)n2)cc1 [DF, Defactinib] |  | significant retention at the membrane and cell periphery | only significant at 24 and 48 hpi |  | at least 10 fold | reduction of polymerase reporter activity [5]: 20%; NFkB p65 phosphorylation, pNFkB p65 / panNFkB p65 ratio (rel. to untreated) [6]: 64% and 68%; reduction of polymerase reporter activity [4]: 13%; cytotoxicity (LDH release) relative to positive control [7]: > 20% |
| C=CC(=O)N1CCC[C@@H](n2nc(-c3ccc(Oc4ccccc4)cc3)c3c(N)ncnc32)C1 [IB, Ibrutinib] |  | significant retention at the membrane and cell periphery | significant throughout the infections |  | more than 1,000 fold |  |
| Cc1cn(-c2cc(NC(=O)c3ccc(C)c(Nc4nccc(-c5cccnc5)n4)c3)cc(C(F)(F)F)c2)cn1 [NI, Nilotinib] | 73% and 61% | No significant changes were detectable | significant throughout the infections | 62% and 45% | more than 1,000 fold | selectivity for PDGFRα than PDGFRβ [8]: > 25 fold; % Luminescence (relative to untreated / normalized to GFP) [5]: 50%; % Luminescence (relative to untreated / normalized to GFP) [9]: 71% and 64% |
| CN1CCN(CCOc2cc(OC3CCOCC3)c3c(Nc4c(Cl)ccc5c4OCO5)ncnc3c2)CC1 [SA, Saracatinib] | 68% | No significant changes were detectable |  | 53% |  | % Luminescence (relative to untreated / normalized to GFP) [9]: 66%; cytotoxicity (LDH release) relative to positive control [7]: > 20% |
| CCN(CC)CCNC(=O)c1c(C)[nH]c(/C=C2\C(=O)Nc3ccc(F)cc32)c1C [sunitinib] |  |  |  |  |  | effect on PAK3 activity [10]: not even a 30-fold higher concentration (0.48 μM) has an effect |
| poly(IC) |  |  |  |  |  | induction of NFkBpS536 [6]: induced NFkBpS536 |
